{
  "source": "ChEMBL document CHEMBL1126592",
  "about": "“Bicyclic compounds as ring-constrained inhibitors of protein-tyrosine kinase p56lck” (J Med Chem, 1993)",
  "data": [
    {"target": "Tyrosine-protein kinase Lck (Homo sapiens, UniProt P06239)", "sequence (P06239 whole entry)": "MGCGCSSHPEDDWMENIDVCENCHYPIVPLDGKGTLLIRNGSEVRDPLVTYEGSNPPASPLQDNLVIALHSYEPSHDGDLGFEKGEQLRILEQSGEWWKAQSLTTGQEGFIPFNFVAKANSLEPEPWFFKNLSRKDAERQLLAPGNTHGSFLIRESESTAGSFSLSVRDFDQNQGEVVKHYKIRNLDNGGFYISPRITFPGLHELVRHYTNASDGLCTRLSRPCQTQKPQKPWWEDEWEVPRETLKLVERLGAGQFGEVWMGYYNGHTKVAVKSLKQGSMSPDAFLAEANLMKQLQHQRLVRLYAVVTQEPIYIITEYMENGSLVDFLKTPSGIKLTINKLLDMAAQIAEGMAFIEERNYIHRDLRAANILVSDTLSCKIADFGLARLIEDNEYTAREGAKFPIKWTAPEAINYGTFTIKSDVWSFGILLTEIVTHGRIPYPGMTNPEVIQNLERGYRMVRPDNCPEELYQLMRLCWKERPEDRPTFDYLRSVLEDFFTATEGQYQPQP", "assay": "Ability to inhibit autophosphorylation of immunopurified p56Ick", "units": {"IC50": "µM"}, "values": [
      {"smiles": "COC(=O)c1ccc2c(O)c(O)ccc2c1", "IC50": 25},
      {"smiles": "N=c1oc2c(O)c(O)ccc2cc1C(N)=O", "IC50": 750},
      {"smiles": "NC(=O)c1cnc2cc(O)c(O)cc2c1", "IC50": 610},
      {"smiles": "N#C/C(=C\\c1ccc(O)cc1)C(N)=O", "IC50": 1000},
      {"smiles": "N=c1oc2c(O)cccc2cc1C(N)=O", "IC50": 100},
      {"smiles": "N=c1oc2cc(O)ccc2cc1C(N)=O", "IC50": "> 2000"},
      {"smiles": "NC(=O)c1ccc2cc(O)c(O)cc2c1", "IC50": 26},
      {"smiles": "N=c1oc2ccccc2cc1C(N)=O", "IC50": 1500},
      {"smiles": "COC(=O)c1cc2ccc(O)c(O)c2cn1", "IC50": 0.2},
      {"smiles": "N=c1oc2cc(O)c(O)cc2cc1C(N)=O", "IC50": "> 2000"},
      {"smiles": "N#C/C(=C\\c1cc(O)c(O)c(O)c1)C(N)=O", "IC50": 2000},
      {"smiles": "N#C/C(=C\\c1ccc(O)c(O)c1)C(N)=O", "IC50": 22},
      {"smiles": "N#C/C(=C\\c1cccc(O)c1)C(N)=O", "IC50": 1500},
      {"smiles": "N=c1oc2ccc(O)cc2cc1C(N)=O", "IC50": 100},
      {"smiles": "N#C/C(=C\\c1cc(O)cc(O)c1)C(N)=O", "IC50": 500}
    ]}
  ]
}
